Key:
[1] = system: sodium channel in hTRPV1-N1E115 cells; test: FLIPR membrane potential assay of sodium channel response in hTRPV1-N1E115 cells, with (47° C.) or without (25° C.) heat activation of hTRPV1; assay type: cell-based; conditions: for hTRPV1-N1E Nav 0.1 mM (% inhibition) 25° C. / hTRPV1-N1E Nav 1 mM (% inhibition) 25° C.: 25° C. (no heat activation of hTRPV1); for hTRPV1-N1E Nav 0.1 mM (% inhibition) 47° C. / hTRPV1-N1E Nav 1 mM (% inhibition) 47° C.: 47° C. (heat activation of hTRPV1); for IC50: 47° C., class symbols, read-out: hTRPV1-N1E IC50 (μM) 47° C.
Description: In one embodiment, a modified FLIPR® (Fluorometric Imaging Plate Reader) based assay system was developed which is capable of discriminating between non-specific versus hTRPV1-mediated entry of test compounds. Advantageously, the assay system utilizes heat activated opening of hTRPV1 channels followed by an assessment of internal sodium channel block. The assay allows a permanently charged compound to selectively enter through opened hTRPV1 channels and that compound's potency in inhibiting sodium channels from the cytoplasm side of the same cell can be assessed and quantified.
The assay is readily performed in multi-well assay plates into which cells in growth media are added and incubated under conditions which permit the formation of a confluent monolayer over a period of hours prior to the start of the assay. Conventional culture media and conditions may be utilized. Duplicate cell assay plates are prepared for each experiment.
The spent media from the cell seeded plates is removed on the day of the assay and replaced with Membrane potential Dye-Blue (Molecular Devices). The dye was prepared in assay buffer following manufacturer's instructions. The dye-loaded plate is incubated at room temperature (about 25° C.) for about 30 minutes in order to pre-load the cells with dye. Optionally, the cells may be loaded with the dye simultaneously with adding the test compounds.
The test compounds are diluted in the Assay Buffer and added to each well of a specific 384-well ‘compound plate’, which serves as a source plate for compound addition using the FLIPR® platform. The concentration of compounds in the compound-plate was adjusted to achieve the desired final concentration when added to the cells in the ‘cell-plate’. After completion of the dye incubation period, the dye loaded cell-plates and the compound source plates are inserted into the FLIPR® Tetra™ device with a 384 FLIPR® tip box (Molecular Devices, Inc.) according to manufacturer's instructions. The compounds are robotically added to the dye loaded cell-plates using software integral to the FLIPR® Tetra™ instrument.
Immediately following compound addition, hTRPV1 is activated, in one of the duplicate cell plates, by heating. Specifically, entire multi-well plate containing the compound-cells mixture is incubated at 47° C. for 10 minutes, after which they are returned to room temperature (about 25° C.) for a further 30 minutes. Heat activation of hTRPV1 was omitted from the replicate cell plate which was simply maintained at room temperature for the entire 40 minutes.
A membrane potential response is elicited in the dye- and compound-loaded cells by the addition of veratridine which is a known sodium channel ‘agonist’. As illustrated in an example herein, an agonist plate containing veratridine (Sigma) is prepared in advance and is inserted into suitable devices such as, e.g., the FLIPR® TETRA® device for a “2nd addition” as instructed by the manufacturer. The concentration of veratridine in the ‘agonist plate’ was adjusted to achieve a final concentration of 100 μM when added to the cells in the cell-plate. Final concentrations of veratridine greater or lesser than 100 μM may also be used but the signal measured by the FLIPR®^Tetra™ device or another suitable device may vary accordingly.
The exposure of the cells in the cell-plate to veratridine induces sodium channels in the cells to open and the resulting ion flux produces a membrane potential depolarization that is detected as a fluorescence signal by the FLIPR® ^Tetra™ Device. The activity of test compounds is determined by their ability to attenuate the veratridine-induced fluorescence signal, the most promising compounds are those that show an enhanced activity in the heat-activated cell plate over the non-heat-activated cell plate. […]

[2] = system: Male Sprague Dawley (SD) rats; test: In vivo assay of mechanical nociception (rat pinch model, perisciatic injection); conditions: for Average Time of Analgesia: test compound 0.5%, lidocaine 2%, total injection 100 μL, perisciatic

| IC50 [1] | Compound | hTRPV1-N1E Nav 0.1 mM (% inhibition) 25° C. [1] | hTRPV1-N1E Nav 0.1 mM (% inhibition) 47° C. [1] | hTRPV1-N1E Nav 1 mM (% inhibition) 25° C. [1] | hTRPV1-N1E Nav 1 mM (% inhibition) 47° C. [1] | duration of anti-nociception effect ([2]; 100 μL injection volume, 0.5% compound with 2% lidocaine (Table 8)) | Average Time of Analgesia [2] |
| --- | --- | --- | --- | --- | --- | --- | --- |
| 10 to 100 µM | CC[N+]1(CC)CCCCC1CCN(c1ccccc1F)C1Cc2ccccc2C1.[I-] (stereo not drawn) [Example 16, 1,1-Diethyl-2-[2-((2-fluorophenyl)(indan-2-yl)amino)ethyl]piperidinium iodide] | 0% | 92.9 (N = 2) % | Insoluble | Insoluble | up to 6 hours | 6 h |
| 1 to 10 µM | CC[N+]1(CC)CCCCC1CCN(c1ccc(C)cc1)C1Cc2ccccc2C1.[I-] (stereo not drawn) [Example 23, 1,1-Diethyl-2-[2-((indan-2-yl)(4-methylphenyl)amino)ethyl]piperidinium iodide] | 19.7% | 89.6 (N = 2) % | Insoluble | Insoluble | – | 2 h |
| 10 to 100 µM | CC[N+]1(CC)CCCC[C@H]1CCN(c1ccccc1)C1Cc2ccccc2C1.[Br-] [Example 49, (S)-1,1-Diethyl-2-[2-((indan-2-yl)(phenyl)amino)ethyl]piperidinium bromide] | 22.2% | – | – | – | – | – |
| 10 to 100 µM | Cc1ccccc1N(CCC1CCCC[N+]12CCOCC2)C1Cc2ccccc2C1.[Cl-] (stereo not drawn) [Example 41, 7-[2-((indan-2-yl)(2-methylphenyl)amino)ethyl]-3-oxa-6-azaspiro[5.5]undecan-6-ium chloride] | 8.3% | – | – | – | – | – |
| 10 to 100 µM | C[N+]1(C)CCCC[C@H]1CN(c1ccccc1)C1Cc2ccccc2C1 [Example 32, (S)-1,1-Dimethyl-2-[((indan-2-yl)(phenyl)amino)methyl]piperidinium iodide] | – | – | – | – | – | – |
| – | C[N+]1(C)CCCCC1CN(c1ccc(F)cc1)C1Cc2ccccc2C1.[I-] (stereo not drawn) [Example 28, 1,1-Dimethyl-2-[((4-fluorophenyl)(indan-2-yl)amino)methyl]piperidinium iodide] | 30.2% | 43.7 (N = 2) % | 61.8 (N = 2) % | 86.6 (N = 2) % | – | – |
| – | C[N+]1(C)CCCC1CN(c1ccccc1)C1Cc2ccccc2C1.[I-] (stereo not drawn) [Example 8, 1,1-dimethyl-2-[((indan-2-yl)(phenyl)amino)methyl]pyrrolidinium iodide] | 6.5% | 22.7 (N = 2) % | 39.9 (N = 2) % | 69.5 (N = 2) % | – | – |
| 10 to 100 µM | Cc1cccc(N(CCC2CCCC[N+]2(C)C)C2Cc3ccccc3C2)c1.[I-] (stereo not drawn) [Example 19, 1,1-Dimethyl-2-[2-((indan-2-yl)(3-methylphenyl)amino)ethyl]piperidinium iodide] | 0% | 87.9% | Insoluble | Insoluble | – | – |
| 10 to 100 µM | [Br-].c1ccc(N(CCC2CCCC[N+]23CCCC3)C2Cc3ccccc3C2)cc1 (stereo not drawn) [Example 20, 6-[2-((Indan-2-yl)(phenyl)amino)ethyl]-5-azoniaspiro[4.5]decane bromide] | 11.2% | 94.8 (N = 3) % | 0 (N = 3) % | 48.9 (N = 3) % | – | – |
| – | C[N+]1(C)CCCCC1CN(c1cccc(F)c1)C1Cc2ccccc2C1.[I-] (stereo not drawn) [Example 31, 1,1-Dimethyl-2-[((3-fluorophenyl)(indan-2-yl)amino)methyl]piperidinium iodide] | 3.8% | 62.6 (N = 2) % | Insoluble | Insoluble | – | – |
| 10 to 100 µM | C[N+]1(C)CCCC[C@@H]1CN(c1ccccc1)C1Cc2ccccc2C1 [Example 33, (R)-1,1-Dimethyl-2-[((indan-2-yl)(phenyl)amino)methyl]piperidinium iodide] | – | – | – | – | – | – |
| 10 to 100 µM | Cc1cccc(N(CCC2CCCC[N+]2(C)C)C2Cc3ccccc3C2)n1.[I-] (stereo not drawn) [Example 47, 1,1-Dimethyl-2-[2-((indan-2-yl)(6-methylpyridine-2-yl)amino)ethyl]piperidinium iodide] | 30.7% | 79.5 (N = 2) % | – | – | – | – |
| – | C[N+]1(C)CCCCC1CCN(c1nccs1)C1Cc2ccccc2C1.[I-] (stereo not drawn) [Example 39, 1,1-dimethyl-2-[2-((indan-2-yl)(thiazol-2-yl)amino)ethyl]piperidinium iodide] | 10.6% | 11.3 (N = 2) % | 31.3 (N = 2) % | 62.4 (N = 2) % | – | – |
| 10 to 100 µM | C[N+]1(C)CCCCC1CCN(c1ccc(F)cc1)C1Cc2ccccc2C1.[I-] (stereo not drawn) [Example 15, 1,1-Dimethyl-2-[2-((4-fluorophenyl)(indan-2-yl)amino)ethyl]piperidinium iodide] | 2.8% | 75.2 (N = 3) % | 0.7 (N = 3) % | 35.0 (N = 3) % | – | – |
| 10 to 100 µM | CC[N+]1(CC)CCCCC1CCCN(c1ccccc1)C1Cc2ccccc2C1.[I-] (stereo not drawn) [Example 26, 1,1-Diethyl-2-[3-((indan-2-yl)(phenyl)amino)propyl]piperidinium iodide] | 44.6% | 64.7 (N = 2) % | Insoluble | Insoluble | – | – |
| 10 to 100 µM | CC[N+]1(CC)CCCCC1CCN(c1cccc(C)c1)C1Cc2ccccc2C1.[I-] (stereo not drawn) [Example 21, 1,1-Diethyl-2-[2-((indan-2-yl)(3-methylphenyl)amino)ethyl]piperidinium iodide] | 44.7% | 80.2 (N = 3) % | 58.2 (N = 3) % | 64.3 (N = 3) % | – | – |
| – | Cc1ccccc1N(CCC1CC[N+](C)(C)CC1)C1Cc2ccccc2C1.[I-] [Example 45, 1,1-Dimethyl-4-[2-((indan-2-yl)(2-methylphenyl)amino)ethyl]piperidinium iodide] | 23.1% | 83.3 (N = 2) % | – | – | – | – |
| 10 to 100 µM | Cc1ccccc1N(CCC1CCCC[N+]1(C)C)C1Cc2ccccc2C1 (stereo not drawn) [Example 50, 1,1-Dimethyl-2-[2-((indan-2-yl)(2-methylphenyl)amino)ethyl]piperidinium chloride] | – | – | – | – | – | – |
| 10 to 100 µM | Cc1cccc(N(CCC2CCCC[N+]2(C)C)C2Cc3ccccc3C2)n1.[Br-] (stereo not drawn) [Example 48, 1,1-Dimethyl-2-[2-((indan-2-yl)(6-methylpyridine-2-yl)amino)ethyl]piperidinium bromide] | 29.6% | – | – | – | – | – |
| – | CC[N+]1(CC)CCCCC1CN(c1ccc(C)cc1)C1Cc2ccccc2C1.[I-] (stereo not drawn) [Example 30, 1,1-Diethyl-2-[((indan-2-yl)(4-methylphenyl)amino)methyl]piperidinium iodide] | 59.4% | 97.2 (N = 2) % | Insoluble | Insoluble | – | – |

From patent publication US8865741B2, “Aminoindane compounds and use thereof in treating pain” (Asana Biosciences, LLC, priority 2011, dated 2014)
